Key:
[1] = molecular target: human adenosine A2A receptors (Homo sapiens, UniProt P29274)
Procedure: CHO cells expressing the human adenosine A2A receptors were grown overnight as a monolayer in 24 wells tissue culture plates (400 μl/well; 2×10^5 cells/well). cAMP generation was performed in Dulbecco's Modified Eagles Medium (DMEM)/N-2-hydroxyethylpiperazin-N′-2-ethansulfonic acid HEPES) buffer (0.60 g HEPES/50 ml DMEM pH 7.4). To each well, washed three times with DMEM/HEPES buffer (250 μl), 100 μl DMEM/HEPES buffer, 100 μl adenosine deaminase (final concentration 5 IU/ml) and 100 μl of a mixture of rolipram and cilostamide (final concentration 50 μM each) were added. After incubation for 40 minutes at 37° C., 100 μL agonist was added. After 15 minutes at 37° C., the reaction was terminated by removing the medium and adding 200 μl 0.1 M HCl. Wells were stored at −20° C. until assay.
The amounts of cAMP were determined after a protocol with cAMP binding protein^12 with the following minor modifications. As a buffer was used 150 mM K2HPO4/10 mM EDTA/0.2% Bovine Serum Albumine (BSA) at pH 7.5. Samples (20 μl+30 μl 0.1 M HCl) were incubated for at least 2.5 hours at 0° C. before filtration over Whatman GF/B filters. […] Filters were counted in Packard Emulsifier Safe scintillation fluid (3.5 ml) after 24 hours of extraction.
All compounds prepared were also tested in a functional assay.

human A3 receptor = molecular target: T1, human A3 receptor (Homo sapiens, UniProt P0DMS8); assay: Radioligand binding, displacement of [125I]AB-MECA from human A3 receptor expressed in HEK 293 cells; conditions: [125I]AB-MECA, human A3 receptor in HEK 293 cells; 10 μM; n=2, mean value
T1 construct: expressed in transfected cells; host or cells: HEK 293
T1 sequence (P0DMS8 1-318): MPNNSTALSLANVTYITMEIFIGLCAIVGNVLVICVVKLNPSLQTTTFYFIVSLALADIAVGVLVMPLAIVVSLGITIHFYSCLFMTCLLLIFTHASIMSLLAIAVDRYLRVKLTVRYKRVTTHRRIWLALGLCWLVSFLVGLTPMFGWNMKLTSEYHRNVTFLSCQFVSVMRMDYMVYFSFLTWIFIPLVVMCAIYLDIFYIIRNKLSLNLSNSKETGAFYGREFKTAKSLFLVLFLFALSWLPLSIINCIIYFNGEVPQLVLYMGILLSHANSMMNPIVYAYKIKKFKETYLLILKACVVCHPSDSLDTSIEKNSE
Procedure: (§1) Incubations were carried out for 1 hr at 37° C. and were terminated by rapid filtration over Whatman GF/B filters, using a Brandell cell harvester (Brandell, Gaithersburg, Md.). Tubes were washed three times with 3 ml of buffer. Radioactivity was determined in a Beckman 5500B γ-counter. Nonspecific binding was determined in the presence of 10^−5 M R-PIA.
(§2) All compounds prepared were tested in radioligand binding assays to determine their affinities for the adenosine A1 receptor in rat brain cortex, the A2A receptor in rat striatum and the human A3 receptor as expressed in HEK 293 cells (Table 2, hereinafter). The Ki values were computed from the displacement curves obtained by nonlinear regression of the competition curves with the software package Prism (Graph Pad, San Diego, Calif.)
(§3) For the adenosine A1 receptor, the tritiated antagonist, [^3H]-1,3-dipropyl-8-cyclopentylxanthine ([^3H]DPCPX), and for the adenosine A2A receptor, the tritiated antagonist [^3H]ZM 241385 were used. Since radiolabeled antagonists are not commercially available for the adenosine A3 receptor, [125I]AB-MECA, an A3 receptor agonist, was used. Displacement experiments were performed in the absence of GTP.

adenosine A1 receptor = molecular target: T2, adenosine A1 receptor (Rattus norvegicus, UniProt P25099); assay: biochemical
T2 sequence (P25099 1-326): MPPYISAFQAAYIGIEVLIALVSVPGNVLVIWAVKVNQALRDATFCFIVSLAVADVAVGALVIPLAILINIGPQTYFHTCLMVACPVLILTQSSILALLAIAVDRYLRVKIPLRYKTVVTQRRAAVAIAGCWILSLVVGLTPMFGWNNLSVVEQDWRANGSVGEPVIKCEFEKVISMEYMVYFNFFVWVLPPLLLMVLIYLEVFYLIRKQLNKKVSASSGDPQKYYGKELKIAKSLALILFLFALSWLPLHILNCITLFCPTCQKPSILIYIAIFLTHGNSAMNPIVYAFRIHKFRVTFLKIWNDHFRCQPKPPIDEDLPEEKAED
Procedure: as §1, §2, §3

adenosine A2A receptor = adenosine A2A receptor (Rattus norvegicus, UniProt P30543); assay: biochemical
Procedure: as §1, §2, §3

With `CCCCC#Cc1nc(N)c2nc(NCCCC)n([C@@H]3O[C@H](CO)[C@@H](O)[C@H]3O)c2n1` [Compound 15, 2-(1-hexynyl)-8-butylaminoadenosine] as the compound, how does the “% cAMP production hA2A” value [1] read?
The value was 72% (63–82).

And the melting point?
Its melting point is 182 to 184 °C.

What about the “% displacement at 10^-5 M, A3” value (human A3 receptor) of the same compound?
Its value is 64.3%.

And the Ki (adenosine A1 receptor)?
The Ki was 539 ± 380 nM.

And the Ki (adenosine A2A receptor)?
The Ki was 149 ± 29 nM.

Reference: patent US7112574B2, “C2,8-disubstituted adenosine derivatives and their different uses” (priority 2001, dated 2006)
